“Also recorded” adds a separate entry of the source. Read-outs that look alike come from different tables or passages of the source.
Experiments:
[1] = type: physicochemical
[2] = type: physicochemical; conditions: RT
Source text: HPLC assay provides an accurate and sensitive detection system for low concentrations of CLB in solution, both protein-free mixtures and protein-containing fluids (i.e., blood plasma), utilizing absorbency detection in the ultraviolet (UV) spectrum. For the detection a wavelength of 254 nm was chosen on the basis of the inherent absorption maximum of the CLB molecule. The HPLC system was equipped with a Waters 717 plus AutoSampler (Waters, Milford, Mass.). The detector was a Waters Model 486 Tunable Absorbance Detector in sequence with a Waters Millennium™ software package for HPLC (Waters, Milford, Mass.). The column used was a Whatman C-18 EQC […] 125A μBondapak 4.6×216 mm. […] The analytic system was based on previously established extraction and HPLC experience with retinoic acid and with the bifunctional DNA-alkylating drug busulfan (Napoli J L, Pramanik B C, Williams J B et al: Quantification of retinoic acid by gas-liquid chromatography-mass spectrometry: total versus all-trans-retinoic acid in human plasma. J LIPID RES. 26: 387-392, 1985; Chow D S-L, Bhagwatwar H P, Phadungpojna S, Andersson B S: Stability-indicating high-performance liquid chromatographic assay of busulfan in aqueous and plasma samples. J CHROMATOGR B, 704: 277-288, 1997). […]

[3] = IV CLB pharmacology in beagle dogs; type: in vivo
Procedure: The CLB given to beagle dogs was prepared as above. The same general design of the experiment was used, except that the dogs received a maximum dose of 7.5 mg/kg BW through a cephalic vein catheter, and the drug was delivered under general anesthesia.
(§1) Blood samples (0.5-1.0 ml) were drawn in heparinized tubes at selected time points prior to the drug infusion (“blank”), and from 5 min to 6 hours after drug injection for determination of CLB concentrations. The samples were obtained through cardiac puncture under light CO2 anesthesia in the rats and through a prepositioned cephalic vein catheter in the dogs. The blood was centrifuged at 1,000×g for 10 min, and the plasma was removed and stored at−80° C. until extracted and assayed by HPLC.

[4] = IV CLB pharmacology in rats; type: in vivo, Sprague-Dawley rats
Source text: Male Sprague-Dawley rats with a body weight of 250-300 g were used for the in vivo pharmacology experiments (Harlan-Sprague-Dawley, Houston, Tex.). The animals were allowed a minimum of 3-4 days after arrival to accommodate to the new environment and allowed free access to commercial feed and tap water prior to and during the experimentation period. The animals were housed in facilities that meet the requirements of the U.S. Department of Agriculture, (USDA), National Institute of Health (NIH), and Department of Health and Human Services (DHHS).
The CLB dose of 5 mg/kg BW was determined to be the highest dose that could be administered to the rats as an IV bolus injection without requiring anticonvulsant premedication.
The CLB was formulated in EtOH/lipid (prototype EtOH/lipid solvent vehicle) to a stock concentration of 100 mg/ml and then diluted with NS so the dose (5.0 mg/kg) could be injected in a tail vein in a volume of approximately 0.5 ml. The CLB concentrations of the formulation were confirmed by HPLC prior to all administrations. No anticonvulsant premedication for the rats in this experiment was used in order to avoid the possible induction of microsomal liver enzymes that could modify CLB metabolism. The animals were unanesthetized, being only physically restrained during the drug injection for the same reason.
as §1

[5] = system: KBM-7/B5 human myeloid leukemia cell line; experiment: In vitro clonogenic cytotoxicity assay, KBM-7/B5; type: cell-based; conditions: acetone positive control
Procedure: (§2) The cytotoxic potential of selected solvent systems with and without CLB was determined against the two human myeloid leukemia cell lines (HL-60) (Gallagher R. Collins S, Trujillo et al: Characterization of the continuously differentiating myeloid cell line (HL-60) from a patient with acute promyelocytic leukemia. BLOOD 54:254-68, 1979) and human myeloid leukemia cell line (KBM-7/B5) (Andersson B S, Beran M, Pathak S, et al: Ph-positive chronic leukemia with near-haploid conversion in vivo and establishment of a continuously growing cell line with similar cytogenetic pattern. CANCER GENETICS AND CYTOGENET 24:335-43, 1987; Andersson B S, Collins V P, Kurzrock R, et al: KBM-7; human myeloid leukemia cell line with double Philadelphia chromosomes but lacking normal BCR and c-ABL transcripts. LEUKEMIA, 9:2100-2108, 1995). Briefly, HL-60 or KBM-7/B5 cells were suspended at a density of 5,000 cells per ml in Iscove's modified Dulbecco medium (IMDM) supplemented with 20% fetal bovine serum (FBS) and 0.3% agar as viscous support. […] Clones of>50 cells were counted under an inverted phase contrast microscope, and survival curves were constructed as described (Andersson B S, Mroue M, Britten R A, Murray D: The role of DNA damage in the resistance of human chronic myeloid leukemia cells to cyclophosphamide analogs. CANCER RESEARCH 54:5394-5400, 1994).

[6] = cited from earlier work
[7] = Osmotic pressure measurement (micro-osmometer); type: physicochemical; conditions: CLB final concentration 1-5 mg/ml
Procedure: It is desirable that a parenteral formulation of a pharmacologically active agent be isosmotic with blood. A hypertonic delivery system can be utilized if the drug formulation is infused through an indwelling (central) venous catheter and gradually diluted in a large blood volume. Osmotic pressures were measured with a micro-osmometer model 3MOplus osmometer (Advanced Instruments Inc., Needham Heights, Mass.). The instrument was calibrated using Advans™ intrinsic calibration standards (Advanced Instruments Inc.) in the range of 500-2000 mOsm/kg. The test solution was placed in a disposable cuvette, and the osmotic pressure readings were recorded. Triplicate measurements were carried out for each vehicle (without CLB), and six measurements were done with drug added. A two-tailed t-test was used to compare the differences in osmotic pressures of various solvent vehicles with and without the addition of CLB (Mann H. B., Whitney D. R.: On a test whether one of two random variables is stochastically larger than the other. ANN. MATH. STATIST. 18: 50-60, 1947).

erythrocytes = experiment: Hemolysis studies in vitro; type: cell-based; conditions: drug concentrations of 100 μg/ml or more
Source text: The procedure of Parthasarathy et al. was used to examine the hemolytic potential of a few selected formulations of the present invention, and the LD50 (concentration that results in 50% lethality or destruction of a population) values of the most optimal formulation was constructed as previously described (Parthasarathy R, Sacks P G, Harris D, et al: Interaction of liposome-associated all-trans-retinoic acid with squamous carcinoma cells. CANCER CHEMOTHER. PHARMACOL. 34:527-34, 1994). Briefly, heparinized blood was mixed with an equal volume of Alsever's solution. This mixture was washed twice in phosphate-buffered saline (PBS), and a 10% (volume per volume, v/v) erythrocyte/PBS solution was then prepared and mixed with increasing amounts of the solvent (prototype EtOH/lipid solvent vehicle and NS) with or without addition of CLB. These resulting mixtures were incubated for 4 hours at 37° C. At the end of the incubation, the cells were pelleted at 10,000×g in an Eppendorf micro-centrifuge, and after washing twice in NS, the pellet was resuspended and lysed using distilled water. The release of hemoglobin in the supernatant (i.e., hemolysis) was determined spectrophotometrically at a wavelength of 550 nm. […]
The hemolytic potential of the formulations (EtOH/lipid/CLB/NS) were evaluated as described. […]

physchem = type: physicochemical
Procedure: The solubility of CLB was determined in several individual vehicles. Briefly, a known amount of CLB drug, formulated as a powder (Sigma, St Louis, Mo.), was equilibrated in the respective solvent at RT over 1-4 hours. An aliquot was removed, filtered, and diluted in methanol (MeOH) before high-pressure liquid chromatography (HPLC) to determine solubility at predetermined times. Based on the CLB solubility in each vehicle, different solvents were mixed according to the cosolvency principle in an attempt to enhance the stable solubility (Spiegel A. J., Noseworthy M. N.: Use of nonaqueous solvents in parenteral products. J. PHARM. SCI. 52:917-927, 1963; Yalkowsky S. H., Roseman T. J.: Solubilization of drugs by cosolvents. In: Yalkowsky S. H. (Ed.): TECHNIQUES OF SOLUBILIZATION OF DRUGS. pp. 91-134. Marcel Dekker Inc., New York, N.Y. 1981).
An excess of CLB as a powder was added to DMSO, PEG, and PG at RT. Each mixture was placed in a dark environment and checked visually for up to 4 hours for evidence of solubilization. Samples of 1 ml were taken at various time intervals. The CLB concentration was then determined by HPLC after filtration through a 0.45 μm polytetrafluoroethylene (PTFE) membrane filter (Autovial®) fitted to a syringe assembly (Whatman Inc., Springfield Mill, Maidstone, Kent, UK).

[8] = system: HL-60 human myeloid leukemia cell line; experiment: In vitro clonogenic cytotoxicity assay, HL-60; type: cell-based; conditions: acetone positive control
Procedure: as §2

O=C(O)CCCc1ccc(N(CCCl)CCCl)cc1 [CLB, 4-[Bis(2-chloroethyl)amino]benzenebutanoic acid]
CLB degradation in DMSO ([1]; DMSO): started degrading within a few hours
Time CLB stable in DMSO before significant degradation ([1]; DMSO, RT): at most 2 hours
Time formulation stable after mixing with infusion fluid ([1]; EtOH/lipid diluted with infusion fluid, RT, listed as Chlorambucil): > 24 h
Stability (percent remaining) of infusion formulation ([1]; RT, over 24 hours, FIG. 1): > 90%
CLB recovered at 24 hours, diluted to 1 mg/ml ([1]; primary stock diluted with NS to 1 mg/ml): > 95%
CLB recovered at 24 hours, diluted to 5 mg/ml ([1]; primary stock diluted with NS to 5 mg/ml): > 95%
Time CLB stable at 100 mg/ml in EtOH/lipid solvent ([2]; 100 mg/ml, prototype EtOH/lipid vehicle): more than 7 days
Drug still intact at 7 days ([2]; EtOH/lipid solvent system, HPLC): > 95%
CLB plasma concentrations after IV injection, beagles ([3]; 7.5 mg/kg BW IV): detectable, cytotoxic CLB plasma concentrations; also recorded: for several hours remained in the cytotoxic range; also recorded: maintained for several hours
Tolerability of injection, beagles ([3]; 7.5 mg/kg BW IV): well accepted
Neurological effect, no premedication ([3]; 7.5 mg/kg BW IV, dogs): generalized seizure; also recorded: caused seizures
Neurological effect, premedicated with diphenylhydantoin ([3]; 7.5 mg/kg BW IV, two dogs): tolerated the CLB administration without any obvious neurological effects
half-life ([3]; dog, plasma, IV, this formulation, FIG. 7 beagle 7.5 mg/kg, read-out: Apparent terminal half-life): ~1 h
CLB plasma concentrations after IV injection, rats ([4]; 5 mg/kg BW IV): detectable, cytotoxic CLB plasma concentrations; also recorded: for several hours remained in the cytotoxic range; also recorded: maintained for several hours
Tolerability of injection, rats ([4]; 5.0 mg/kg BW IV): well tolerated; also recorded: well accepted
Highest dose as IV bolus without requiring anticonvulsant premedication ([4]; rats, IV bolus): 5 mg/kg BW
Cytotoxic activity in the formulation vs CLB dissolved in acetone, KBM-7/B5 [5]: retained full cytotoxic activity
Dose at which dose-limiting neurological toxicity is manifested ([6]; oral, intermittent schedule, confusion, generalized seizures): ≥ 100 mg/m^2 BSA
Terminal half-life in blood ([6]; taken by mouth): approximately 60 minutes
Change of osmolarity of complete vehicle by addition of CLB [7]: < 5%
CLB-dependent lysis (erythrocytes): barely exceeded background
solubility (physchem; DMSO, organic solvent or mixture, thermodynamic from solid, DMSO, RT, read-out: CLB solubility (maximum equilibrium concentration) in DMSO): > 100 mg/mL
solubility at 1 h (physchem; EtOH, organic solvent or mixture, thermodynamic from solid, EtOH, within 1 hour at RT, read-out: CLB solubility (maximum equilibrium concentration) in EtOH): > 100 mg/mL
CLB solubility in aqueous solvents (physchem; NS, 5% dextrose in water, soybean lipid emulsion (Intralipid)): virtually insoluble
Solubilized CLB in PEG-400, PG, NS, 20% soybean lipid emulsion, 5% dextrose (physchem; RT): did not yield any significant concentrations of solubilized drug
solubility (physchem; prototype EtOH/lipid solvent vehicle, aqueous with cosolvent or surfactant or cyclodextrin, thermodynamic from solid, EtOH/emulsified soybean oil vehicle, read-out: CLB solubility in prototype EtOH/lipid solvent vehicle): ≥ 100 mg/mL
Cytotoxic activity in the formulation vs CLB dissolved in acetone, HL-60 [8]: retained full cytotoxic activity
